Experimental findings from patent US8093226B2, “Cytostatic 7-deazapurine nucleosides” (Institute of Organic Chemistry and Biochemistry of the …, priority 2008, dated 2012) are described below.

What all share (assay type): cell-based
In assay [1] the test system is NCIH23. Kind of assay: Test A: Cytostatic Cell Culture Assay (GI50), NCIH23. As to conditions: Homo sapiens, NCI-H23, 120 h; NCIH23 cells, 5 days, SRB; read-out: G150 Lung NCIH23. The text has this: (§1) Test A: Cytostatic Cell Culture Assay (GI50)
(§2) This assay is based on quantification of cell counts by a calorimetric detection of the cell associated proteins. The assay relies on the ability of sulforhodamine B (SRB) to bind to protein components of cells that have been fixed to tissue-culture plates by trichloroacetic acid (TCA). SRB is a bright-pink aminoxanthene dye with two sulfonic groups that bind to basic amino-acid residues under mild acidic conditions, and dissociate under basic conditions. As the binding of SRB is stoichiometric, the amount of dye extracted from stained cells is directly proportional to the cell mass.
(§3) Cell lines: All cell lines are obtained from ATCC (Manassas, Va.). Cultivation media containing Glutanax, and trypsin are purchased from Invitrogen (Carlsbad, Calif.). Doxorubicin, Clofarabine, TCA and SRB are from Sigma-Aldrich (St. Louis, Mo.). Gemcitabine is obtained from Moravek Biochemicals (Brea, Calif.)
(§4) • 1. Trypsinize the sub-confluent cells, count them, and adjust the cell concentrations according to the cell counts listed in Table 1. • 2. Distribute the cells into the 96-well plates in 150 μL of media. Incubate the plates overnight in humidified CO2 incubator at 37° C. • 3. Fix one plate of each cell line with TCA. Discard the cultivation media from the plates by flicking them gently and add 100 μL cold 10% (vol/vol) TCA to each well. Incubate the plates at 4 degree refrigerator for 1 hour. Discard TCA from the plates by flicking them gently. Rinse plates four times in a washing basin containing tap water. Store the plates at room temperature. These plates represent cell counts on day zero. • 4. Prepare a set of medium solutions containing various concentrations of tested compounds by making 5-fold serial dilutions in 96-well plate. Add 50 μL of the diluted compounds per well. Include controls with untreated cells and cells treated with doxorubicin, clofarabine and gemcitabine. • 5. Incubate the plates for 5 days at 37° C. • 6. Fix the plates with TCA. Discard the cultivation media from the plates by flicking them gently and add 100 μL cold 10% (vol/vol) TCA to each well. Incubate the plates at 4 degree refrigerator for 1 hour. Discard TCA from the plates by flicking them gently. Rinse plates four times in a washing basin containing tap water. • 7. Remove excess water by tapping the plates face down, gently on a paper towel. Allow the plates to air-dry at room temperature. • 8. Add 100 μL of 0.057% SRB solution in 1% (vol/vol) acetic acid to each well of the plates fixed with TCA on day zero and five. Leave at room temperature for 30 minutes. • 9. Flick the plates gently to discard SRB. Rinse the plates four times with 1% (vol/vol) Acetic Acid. • 10. Store the plates at 370 incubator to facilitate faster drying. • 11. Once the plates are completely dry, add 200 μL of 10 mM Tris base solution (pH 10.5) to each well. Leave at room temperature for 30 minutes for SRB to solubilize. • 12. Measure the OD at 500 nm in a microplate reader. • 13. Calculate the percentage of cell-growth inhibition using the next formula: % of control cell growth=100×(ODsample−mean ODday0)/(ODneg control−mean ODday0)
(§5) For GI50 determination, plot a dose-response curves between the compound concentration and percent of growth inhibition. GI50 values can be derived by fitting dose-response curves using sigmoidal dose response equation.

The subject of assay [2] is A549. Kind of assay: Test A: Cytostatic Cell Culture Assay (GI50), A549. As to conditions: Homo sapiens, 120 h; A549 cells, 5 days, SRB; read-out: G150 Lung A549.
Excerpt: as §1, §2, §3, §4, §5

Assay [3] has as its system Du145. Kind of assay: Test A: Cytostatic Cell Culture Assay (GI50), Du145. As to conditions: Homo sapiens, DU-145, 120 h; Du145 cells, 5 days, SRB; read-out: G150 Prostate Du145.
Excerpt: as §1, §2, §3, §4, §5

The test system of assay [4] is Hs578. Kind of assay: Test A: Cytostatic Cell Culture Assay (GI50), Hs578. As to conditions: 120 h; Hs578 cells, 5 days, SRB; read-out: G150 Breast Hs578.
Excerpt: as §1, §2, §3, §4, §5

Assay [5] concerns HCT116. Kind of assay: Test A: Cytostatic Cell Culture Assay (GI50), HCT116. As to conditions: Homo sapiens, HCT-116, 120 h; HCT116 cells, 5 days, SRB; read-out: G150 Colon HCT116.
Excerpt: as §1, §2, §3, §4, §5

In assay [6] the test system is PC3. Kind of assay: Test A: Cytostatic Cell Culture Assay (GI50), PC3. As to conditions: Homo sapiens, PC-3, 120 h; PC3 cells, 5 days, SRB; read-out: G150 Prostate PC3.
Excerpt: as §1, §2, §3, §4, §5

Assay [7] has as its system HCT15. Kind of assay: Test A: Cytostatic Cell Culture Assay (GI50), HCT15. As to conditions: Homo sapiens, HCT-15, 120 h; HCT15 cells, 5 days, SRB; read-out: G150 Colon HCT15.
Excerpt: as §1, §2, §3, §4, §5

Each structure is given as a SMILES string.

With `OC[C@H]1O[C@@H](n2cc(F)c3c(-c4ccc[nH]4)ncnc32)[C@H](O)[C@@H]1O` [Example 22], the IC50 stood at 2610 nM in assay [1]; 195 nM in assay [2]; 9 nM in assay [3]; 315 nM in assay [4]; 453 nM in assay [5]; 176 nM in assay [6]. In assay [7], the IC50 turned out to be 111 nM.
Take `OC[C@H]1O[C@@H](n2cc(F)c3c(-c4ccoc4)ncnc32)[C@H](O)[C@@H]1O` [Example 23, 5-Fluoro-4-(furan-3-yl)-7-(β-D-ribofuranosyl)-7H-pyrrolo[2,3-d]pyrimidine]: the IC50 in assay [1] is 4640 nM; in assay [2], 60 nM; in assay [3] it was 5 nM; in assay [4], 177 nM; in assay [5] it was 18 nM; in assay [6], 87 nM. Also, in assay [7], the IC50 amounted to 39 nM.
Consider `OC[C@H]1O[C@@H](n2cc(F)c3c(-c4ccsc4)ncnc32)[C@H](O)[C@@H]1O` [Example 24, 5-Fluoro-7-(β-D-ribofuranosyl)-4-(thiophen-3-yl)-7H-pyrrolo[2,3-d]pyrimidine], for which the IC50 in assay [1] turned out to be 2950 nM; in assay [2], 379 nM; in assay [3], 66 nM; in assay [4], 813 nM; in assay [5], 145 nM; in assay [6], 105 nM. The IC50 in assay [7] worked out at 179 nM.
As for `OC[C@H]1O[C@@H](n2cc(F)c3c(-c4nccs4)ncnc32)[C@H](O)[C@@H]1O` [Example 25, 5-Fluoro-7-(β-D-ribofuranosyl)-4-(thiazol-2-yl)-7H-pyrrolo[2,3-d]pyrimidine], the IC50 in assay [1] worked out at 4980 nM; in assay [2], 902 nM; in assay [3], 24 nM; in assay [4], 566 nM; in assay [5], 1260 nM; in assay [6] it was 175 nM. Moreover, the IC50 in assay [7] stood at 361 nM.
In the case of `OC[C@H]1O[C@@H](n2cc(F)c3c(-c4c[nH]cn4)ncnc32)[C@H](O)[C@@H]1O` [Example 26, 5-Fluoro-4-(1H-imidazol-4-yl)-7-(β-D-ribofuranosyl)-7H-pyrrolo[2,3-d]pyrimidine], the IC50 in assay [1] is 7620 nM; in assay [2], greater than 20000 nM; in assay [3], 887 nM; in assay [4] it was 2110 nM; in assay [5], greater than 20000 nM; in assay [6], 2110 nM. In assay [7], the IC50 amounted to 3590 nM.
For the compound `OC[C@H]1O[C@@H](n2cc(F)c3c(-c4cc[nH]c4)ncnc32)[C@H](O)[C@@H]1O` [Example 27, 5-Fluoro-7-(β-D-ribofuranosyl)-4-(pyrrol-3-yl)-7H-pyrrolo[2,3-d]pyrimidine], the IC50 in assay [1] was found to be 1600 nM; in assay [2], 126 nM; in assay [3] it was 10 nM; in assay [4], 356 nM; in assay [5], 255 nM; in assay [6], 60 nM. In assay [7], the IC50 turned out to be 65 nM.
Take `OC[C@H]1O[C@@H](n2cc(Cl)c3c(-c4ccccc4)ncnc32)[C@H](O)[C@@H]1O` [Example 28, 5-Chloro-4-phenyl-7-(β-D-ribofuranosyl)-7H-pyrrolo[2,3-d]pyrimidine]: the IC50 in assay [1] was determined as 5020 nM; in assay [2] it was 2470 nM; in assay [3], 138 nM; in assay [4] it was 13200 nM; in assay [5] it was 1420 nM; in assay [6], 263 nM. In addition, the IC50 in assay [7] was 290 nM.
In the case of `OC[C@H]1O[C@@H](n2cc(Cl)c3c(-c4ccco4)ncnc32)[C@H](O)[C@@H]1O` [Example 29, 5-Chloro-4-(furan-2-yl)-7-(β-D-ribofuranosyl)-7H-pyrrolo[2,3-d]pyrimidine], the IC50 in assay [1] is 13200 nM; in assay [2], 15200 nM; in assay [3] it was 10000 nM; in assay [4], greater than 20000 nM; in assay [5], greater than 20000 nM; in assay [6] it was greater than 20000 nM. Further, in assay [7], the IC50 worked out at 8150 nM.
